Series [1] in a line: Stability test of crystal form A solid (accelerated, 40° C./75% humidity, open). It counts as physicochemical. The protocol: A crystal form A was put in an open container at a constant temperature and humidity for accelerated test respectively at 40° C./75% humidity (open). Samples were collected in 1st, 2nd and 3rd months and tested, and the test results were compared with the initial test results on 0th day.

The nature of series [2]: Solubility of crystal form A in different solvents. It counts as physicochemical. Particulars: thermodynamic from solid, room temperature. The protocol:
About 2 mg of crystal form A was weighed put in a 1.5 mL liquid phase vial, to which the following solvents were respectively added by pipettes by stages to dissolve the crystal form A while manually vibrating.

Series [3] in a line: Evaluation on pharmacokinetics of compound in SD rats. It is filed as in vivo. Particulars: male, Sprague-Dawley, rat, plasma; for clearance / AUC / half-life: single intravenous injection and oral administration; for clearance: read-out: Clearance rate; for AUC: read-out: Concentration integral AUC; for half-life: read-out: Half life T1/2 (converted). The protocol: Experimental objective: To test the pharmacokinetics of a compound in SD rats
Experimental materials: Sprague Dawley rats (male, 200-300 g, 7-9 weeks old, Shanghai SLAC)
Pharmacokinetic characteristics of rodents after intravenous injection and oral administration of the compound were tested using a standard scheme. In the experiment, a candidate compound was prepared into a clear solution, which was administrated to rats by single intravenous injection and oral administration. The solvent for intravenous injection and oral administration is water solution or normal saline solution of hydroxypropyl 3 cyclodextrin at a certain proportion. A whole blood sample was collected within 24 hours, and 3000 g of the sample was centrifuged for 15 minutes. The supernatant was separated to obtain blood plasma samples, to which 4 times volume of an acetonitrile solution containing an internal standard substance was added to precipitate protein. After centrifuging, the supernatant was collected, equivalent volume of water was added, the resulting solution was recentrifuged, and the supernatant was collected for sample injection. The blood concentration was quantitatively analyzed by LC-MS/MS, and the pharmacokinetic parameters were calculated, such as peak concentration, time to peak, clearance rate, half life, area under the curve and bioavailability.

Series [4] deals with T1, recombinant full-length human PDE2A protein (Homo sapiens, UniProt O00408).
T1 construct: A recombinant full-length human PDE2A protein; GST (N); made in house; host or cells: Sf9 insect cells (baculovirus)
Kind of series: In vitro evaluation on inhibition activities of PDE2 phosphodiesterase (fluorescence polarization, Transcreener AMP2/GMP2). It counts as biochemical. As to conditions: substrate 1 μM cGMP. The protocol: Experimental objective: the concentrations of AMP/GMP generated in the reaction system was detected by detecting a substituted AlexaFluor 633 fluorochrome on AMP/GMP antibodies through fluorescence polarization analysis, and IC50 of PDE2 phosphodiesterase against compound to be detected was calculated.
Buffer solution for determination: 10 mM Tris-HCl, pH 7.5, 5 mM MgCl2, 0.01% Brij 35, 1 mM DTT, and 1% DMSO.
Enzyme: A recombinant full-length human PDE2A protein was expressed by baculovirus in Sf9 insect cells using an N-terminal GST tag
Transcreener® AMP^2/GMP^2 antibody, AMP2/GMP2 AlexaFluor 633 fluorochrome
An enzyme solution was prepared from a freshly prepared buffer solution, and then added to a reaction cavity, a DMSO solution of compound to-be-detected was added through an Echo550 contactless nanoliter pipetting system, and then the resulting solution was preincubated for 10 min at room temperature. A substrate (1 μM cGMP) was added to initiate reaction, which was kept at room temperature for 1 h. […] Fluorescence polarization was detected using Ex/Em 620/688.
Fluorescence polarization intensity was converted to nM concentration through AMP/GMP standard curves, then relative enzymatic activity inhibition was calculated compared with DMSO blank control, and IC50 and curve thereof was calculated using Prism software package (GraphPad Software, San Diego Calif., USA).
On the technique in general: Polarisation of emitted light reports the rotation of a fluorescent probe.

Series [5] deals with LPS-induced TNF-α. Briefly: In vitro influence of compound on LPS-induced TNF-α in blood (ELISA). It is filed as cell-based, Sprague Dawley rats. As to conditions: rat blood, compound 100 uM, 5 h. The protocol: Experimental objective: to detect the influence of compound on LPS-induced TNF-α in blood of […] in vitro, and to evaluate inhibiting effects of the compound on LPS-induced TNF-α in blood of […].
Sprague Dawley rats (male, 210-260 g, 8-10 weeks old, Shanghai SLAC)
Rat TNF-alpha Quantikine ELISA Kit (R&D, #SRTA00)
The solution of compound to-be-detected at a concentration of 1 mM was prepared, and 40 μL (final concentration of the compound: 100 uM) was respectively added to a 48-well cell culture plate. After rats were anesthetized with isoflurane, blood samples were collected from their hearts (heparin anticoagulation). The blood was added to the to-be-detected compound present in the 48-well plate with 320 μL/well. The 48-well plate was incubated in a cell incubator for 30 min. Then 40 μL of LPS solution (100 ug/ml) was added, and fully mixed. The plate was further incubated in the incubator. 5 h later, the 48-well plate was taken out. The blood samples were transferred to 1.5 ml centrifuge tubes, and centrifuged in a centrifuge (4,500 rpm, 4° C., 5 minutes). The supernatant was separated to obtain blood plasma, which was subpackaged, quickly frozen, and kept in a refrigerator at −80° C. On the next day, the TNF-α levels in blood plasma samples were detected using an R&D ELISA kit.
(ELISA stands for enzyme-linked immunosorbent assay.)

[6] abbreviates: 40° C./75% humidity (open), 1 month.
Where [7] appears, read: 40° C./75% humidity (open), 2 months.
Where [8] appears, read: 40° C./75% humidity (open), 3 months.

We go through three compounds from patent publication US10399981B2, “Crystal form A of 7-(cyclopropylmethyl)-1-(((cis )-4-hydroxy-4-methylcyclohexyl)methyl)-3-methyl-1H-purine-2,6-(3H,7H)-dione for treating liver diseases” (GUANGDONG RAYNOVENT BIOTECH CO., LTD., priority 2015, dated 2019).

Each structure is given as a SMILES string. In brackets after ≈: the same amount, converted by molar mass.

T1 sequence (O00408 whole entry): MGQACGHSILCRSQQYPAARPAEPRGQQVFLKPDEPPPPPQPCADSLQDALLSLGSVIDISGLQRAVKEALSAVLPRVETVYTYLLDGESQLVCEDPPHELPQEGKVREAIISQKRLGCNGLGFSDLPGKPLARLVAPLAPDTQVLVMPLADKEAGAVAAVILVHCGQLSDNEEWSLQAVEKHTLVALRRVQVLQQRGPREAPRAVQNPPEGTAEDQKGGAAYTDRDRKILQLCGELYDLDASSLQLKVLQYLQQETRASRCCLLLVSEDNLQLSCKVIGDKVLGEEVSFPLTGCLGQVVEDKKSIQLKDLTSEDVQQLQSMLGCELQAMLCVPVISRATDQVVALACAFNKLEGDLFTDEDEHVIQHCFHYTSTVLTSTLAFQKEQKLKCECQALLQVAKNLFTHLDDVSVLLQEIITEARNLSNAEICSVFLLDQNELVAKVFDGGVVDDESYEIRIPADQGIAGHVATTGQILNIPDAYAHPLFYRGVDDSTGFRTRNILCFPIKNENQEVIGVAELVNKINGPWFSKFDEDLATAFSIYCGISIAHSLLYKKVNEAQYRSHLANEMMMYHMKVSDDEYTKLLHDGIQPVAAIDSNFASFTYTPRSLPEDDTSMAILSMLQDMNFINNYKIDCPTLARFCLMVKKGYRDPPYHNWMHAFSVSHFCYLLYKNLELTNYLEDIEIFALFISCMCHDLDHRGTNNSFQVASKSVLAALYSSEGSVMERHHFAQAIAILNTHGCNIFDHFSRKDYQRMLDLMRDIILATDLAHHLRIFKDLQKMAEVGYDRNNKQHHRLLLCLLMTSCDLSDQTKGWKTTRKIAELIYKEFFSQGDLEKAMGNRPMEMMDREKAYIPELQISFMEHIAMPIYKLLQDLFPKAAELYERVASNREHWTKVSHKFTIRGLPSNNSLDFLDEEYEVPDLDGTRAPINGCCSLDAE

A word on the solubility: it is how much of the substance goes into solution per volume. `Cn1c(=O)n(C[C@H]2CC[C@@](C)(O)CC2)c(=O)c2c1ncn2CC1CC1` [Crystal Form A, 7-(cyclopropylmethyl)-1-(((cis)-4-hydroxy-4-methylcyclohexyl)methyl)-3-methyl-1H-purine-2,6-(3H, 7H)-dione]: the Appearance entry in series [1] (setting [6]) is given as “White powder”; in series [1] (setting [7]), “White powder”; in series [1] (setting [8]), “White powder”; in series [1] (Initial, 0 month) it was “White powder”. Also, the Content was determined as 101.4% in series [1] (setting [6]); 98.8% in series [1] (setting [7]); 101.8% in series [1] (setting [8]); 101.6% in series [1] (Initial, 0 month). In addition, the “Total Impurities” value in series [1] (setting [6]) came out at 0.31%; in series [1] (setting [7]) it was 0.34%; in series [1] (setting [8]), 0.32%; in series [1] (Initial, 0 month), 0.33%. Moreover, the solubility in series [2] (aqueous with cosolvent or surfactant or cyclodextrin, Acetone-water (1:2)) is about 1 mg/mL (≈ 2.89 mM); in series [2] (aqueous with cosolvent or surfactant or cyclodextrin, Acetonitrile-water (1:1)), about 22.2 mg/mL (≈ 64.1 mM); in series [2] (aqueous with cosolvent or surfactant or cyclodextrin, Ethanol-water (1:1)), about 16.3 mg/mL (≈ 47.1 mM); in series [2] (aqueous with cosolvent or surfactant or cyclodextrin, Ethanol-water (3:1)) it was about 24.5 mg/mL (≈ 70.7 mM); in series [2] (aqueous with cosolvent or surfactant or cyclodextrin, Isopropanol-water (1:1)), about 17.3 mg/mL (≈ 49.9 mM); in series [2] (aqueous with cosolvent or surfactant or cyclodextrin, Methanol-water (1:1)) it was about 7.8 mg/mL (≈ 22.5 mM). The solubility was about 19 mg/mL (≈ 54.8 mM) in series [2] (aqueous with cosolvent or surfactant or cyclodextrin, Methanol-water (3:1)); about 24.2 mg/mL (≈ 69.9 mM) in series [2] (organic solvent or mixture, 2-methyltetrahydrofuran); about 17.2 mg/mL (≈ 49.6 mM) in series [2] (organic solvent or mixture, Acetone); about 13 mg/mL (≈ 37.5 mM) in series [2] (organic solvent or mixture, Acetonitrile); about 37.2 mg/mL (≈ 107 mM) in series [2] (organic solvent or mixture, Butanone); under 1 mg/mL in series [2] (organic solvent or mixture, Cyclohexane). Also, the solubility is over 57 mg/mL in series [2] (organic solvent or mixture, Dioxane); about 11.2 mg/mL (≈ 32.3 mM) in series [2] (organic solvent or mixture, Ethanol); about 15.2 mg/mL (≈ 43.9 mM) in series [2] (organic solvent or mixture, Ethyl acetate); about 10.1 mg/mL (≈ 29.2 mM) in series [2] (organic solvent or mixture, Isopropanol); about 12 mg/mL (≈ 34.6 mM) in series [2] (organic solvent or mixture, Isopropyl acetate); about 28.7 mg/mL (≈ 82.8 mM) in series [2] (organic solvent or mixture, Methanol). Further, the solubility in series [2] (organic solvent or mixture, Methyl isobutyl ketone) was about 10.9 mg/mL (≈ 31.5 mM); in series [2] (organic solvent or mixture, Methyl tertiary butyl ether), about 2.6 mg/mL (≈ 7.51 mM); in series [2] (organic solvent or mixture, Methylbenzene) it was under 1 mg/mL; in series [2] (organic solvent or mixture, Tetrahydrofuran), over 67 mg/mL; in series [2] (organic solvent or mixture, n-butanol), about 20.5 mg/mL (≈ 59.2 mM); in series [2] (organic solvent or mixture, n-heptane) it was under 1 mg/mL. This compound also showed a solubility in series [2] (Water) of under 1 mg/mL.

For `CC(=O)CCCCn1c(=O)c2c(ncn2C)n(C)c1=O` [Pentoxifylline, reference compound], in series [3], the clearance is 74.1 mL/min/kg, the AUC was determined as 6.62 µM·h and the half-life was 11.5 min.

Broadly, the bioavailability is the share of a dose that reaches the circulation, judged against a reference dose that is usually intravenous. One may read the IC50 as the midpoint of a concentration-inhibition curve. For `Cn1c(=O)n(C[C@H]2CC[C@@](C)(O)CC2)c(=O)c2c1ncn2CC1CC1` [Compound (I), 7-(cyclopropylmethyl)-1-(((cis)-4-hydroxy-4-methylcyclohexyl)methyl)-3-methyl-1H-purine-2,6-(3H, 7H)-dione], in series [3] (oral administration, read-out: Bioavailability F), the bioavailability was 47.9%. Also, in series [3], the clearance turned out to be 54.4 mL/min/kg, the AUC turned out to be 4.39 µM·h and the half-life was 47.6 min. The IC50 in series [4] is 1 to 10 µM. In addition, the “TNF-α Inhibition Ratio” value in series [5] is reported as “++ (80% ≤ “++” < 100%)”.
